In a compilation of properties of binary mixtures (doi:10.1007/s10953-022-01154-2):

Experiment: xn = mol fraction of the nth substance listed
Conditions: 101.3 kPa, x2 = 0

CC1COC(=O)O1 (stereo not drawn) + CC[n+]1ccn(C)c1.N#C[S-]
Conditions	viscosity [mPa·s]
298.15 K	2.496
303.15 K	2.164
313.15 K	1.731
318.15 K	1.586
323.15 K	1.466
328.15 K	1.373
338.18 K	1.223
343.15 K	1.173
